For the assay, the system named is E. coli strains (e.g. BL21 or DH10beta). The experiment in a line: Growth of E. coli on LB medium with varying antibiotic concentrations (MIC), liquid and agar plates. The assay is classed as cell-based. The conditions noted are these: for Antibiotic concentration to which resistance is conferred: E. coli transformed with isolated mutated GPR55 clones; for MIC: Escherichia coli. The protocol: The construct library containing modified genes is then used to transform E. coli strains (e.g. BL21 or DH10beta). Growth is tested on LB medium with varying concentrations of kanamycin (MIC for untransformed cells is approximately 10 mg/L), both in liquid and agar plates.

Setting [1] is: E. coli containing a plasmid encoding wild type human GPR55.
[2] abbreviates: read-out: Apparent MIC, E. coli expressing certain constructs containing wild type rat NTSR1 (aa 43-424).

In brackets after ≈: the same amount, converted by molar mass. Read-outs that look alike come from different tables or passages of the source.

From patent US12351628B2, “Modified membrane spanning proteins and methods for the preparation and use thereof” (priority 2014, dated 2025) come the findings set out here.

One may read the MIC as the lowest concentration that inhibits growth of the organism. With `CC1(C)S[C@@H]2[C@H](NC(=O)C(C(=O)O)c3ccccc3)C(=O)N2[C@H]1C(=O)O` (stereo partly shown) [carbenicillin], the “Antibiotic concentration to which resistance is conferred” value is reported as greater than 80 mg/L. Moreover, the MIC under setting [1] is roughly 40 µg/mL (≈ 106 µM). Also, under setting [2], the MIC is greater than 75 µg/mL.
On to `NC[C@H]1O[C@H](O[C@H]2[C@H](O)[C@@H](O[C@H]3O[C@H](CO)[C@@H](O)[C@H](N)[C@H]3O)[C@H](N)C[C@@H]2N)[C@H](O)[C@@H](O)[C@@H]1O` [kanamycin], for which the “Antibiotic concentration to which resistance is conferred” value was greater than 50 mg/L. The molecule also showed an MIC under setting [1] of roughly 25 µg/mL (≈ 51.6 µM). The MIC under setting [2] is greater than 50 µg/mL. For the setting “untransformed E. coli cells, LB medium”, this molecule returned an MIC of roughly 10 µg/mL (≈ 20.6 µM).
